ChEMBL document CHEMBL3046208, “Natural and synthetic podolactones with potential use as natural herbicide models” (2000)
Activity calls are given as the source filed them. The rule behind the calls is not given here.

Tests used:
Lepidium sativum [1] = assay: Inhibition of shoot length of Lepidium sativum at 0.1 mM after 5 days relative to untreated control; format: functional; details: 120 h
Lactuca sativa [2] = assay: Inhibition of shoot length of Lactuca sativa cv. Roman (lettuce) at 0.1 mM after 5 days relative to untreated control; format: functional; details: 120 h
Triticum aestivum [3] = assay: Inhibition of shoot length of Triticum aestivum (wheat) at 0.1 mM after 5 days relative to untreated control; format: functional; details: 120 h
Lactuca sativa [4] = assay: Stimulation of root length of Lactuca sativa cv. Roman (lettuce) at 0.1 mM after 5 days relative to untreated control; format: functional
Allium cepa [5] = assay: Stimulation of root length of Allium cepa (onion) at 0.1 mM after 5 days relative to untreated control; format: functional
Triticum aestivum [6] = assay: Stimulation of germination of Triticum aestivum (wheat) at 0.1 mM after 5 days relative to untreated control; format: functional
Lactuca sativa [7] = assay: Inhibition of germination of Lactuca sativa cv. Roman (lettuce) at 0.1 mM after 5 days relative to untreated control; format: functional; details: 120 h
Lactuca sativa [8] = assay: Inhibition of germination of Lactuca sativa cv. Nigra (lettuce) at 0.1 mM after 5 days relative to untreated control; format: functional
Triticum aestivum [9] = assay: Inhibition of germination of Triticum aestivum (wheat) at 0.1 mM after 5 days relative to untreated control; format: functional
Hordeum vulgare [10] = assay: Inhibition of germination of Hordeum vulgare (barley) at 0.1 mM after 5 days relative to untreated control; format: functional; details: 120 h
Lepidium sativum [11] = assay: Inhibition of germination of Lepidium sativum at 0.1 mM after 5 days relative to untreated control; format: functional; details: 120 h
Solanum lycopersicum [12] = assay: Stimulation of root length of Solanum lycopersicum (tomato) at 0.1 mM after 5 days relative to untreated control; format: functional
Hordeum vulgare [13] = assay: Inhibition of shoot length of Hordeum vulgare (barley) at 0.1 mM after 5 days relative to untreated control; format: functional; details: 120 h
Solanum lycopersicum [14] = assay: Stimulation of germination of Solanum lycopersicum (tomato) at 0.1 mM after 5 days relative to untreated control; format: functional
Lactuca sativa [15] = assay: Stimulation of germination of Lactuca sativa cv. Nigra (lettuce) at 0.1 mM after 5 days relative to untreated control; format: functional
Lepidium sativum [16] = assay: Stimulation of germination of Lepidium sativum at 0.1 mM after 5 days relative to untreated control; format: functional
Lepidium sativum [17] = assay: Inhibition of root length of Lepidium sativum at 0.1 mM after 5 days relative to untreated control; format: functional; details: 120 h
Lactuca sativa [18] = assay: Stimulation of germination of Lactuca sativa cv. Roman (lettuce) at 0.1 mM after 5 days relative to untreated control; format: functional
Solanum lycopersicum [19] = assay: Inhibition of shoot length of Solanum lycopersicum (tomato) at 10 uM after 5 days relative to untreated control; format: functional, organism-based
Solanum lycopersicum [20] = assay: Inhibition of germination of Solanum lycopersicum (tomato) at 0.1 mM after 5 days relative to untreated control; format: functional; details: 120 h
Lepidium sativum [21] = assay: Stimulation of shoot length of Lepidium sativum at 0.1 mM after 5 days relative to untreated control; format: functional
Hordeum vulgare [22] = assay: Stimulation of shoot length of Hordeum vulgare (barley) at 0.1 mM after 5 days relative to untreated control; format: functional
Lepidium sativum [23] = assay: Inhibition of germination of Lepidium sativum at 10 uM after 5 days relative to untreated control; format: functional, organism-based
Lactuca sativa [24] = assay: Inhibition of root length of Lactuca sativa cv. Roman (lettuce) at 0.1 mM after 5 days relative to untreated control; format: functional; details: 120 h
Lactuca sativa [25] = assay: Inhibition of shoot length of Lactuca sativa cv. Nigra (lettuce) at 0.1 mM after 5 days relative to untreated control; format: functional; details: 120 h
Triticum aestivum [26] = assay: Stimulation of root length of Triticum aestivum (wheat) at 0.1 mM after 5 days relative to untreated control; format: functional
Lactuca sativa [27] = assay: Stimulation of shoot length of Lactuca sativa cv. Nigra (lettuce) at 0.1 mM after 5 days relative to untreated control; format: functional
Lactuca sativa [28] = assay: Stimulation of shoot length of Lactuca sativa cv. Roman (lettuce) at 0.1 mM after 5 days relative to untreated control; format: functional
Solanum lycopersicum [29] = assay: Inhibition of root length of Solanum lycopersicum (tomato) at 0.1 mM after 5 days relative to untreated control; format: functional; details: 120 h
Lactuca sativa [30] = assay: Inhibition of root length of Lactuca sativa cv. Nigra (lettuce) at 0.1 mM after 5 days relative to untreated control; format: functional; details: 120 h
Hordeum vulgare [31] = assay: Inhibition of root length of Hordeum vulgare (barley) at 0.1 mM after 5 days relative to untreated control; format: functional; details: 120 h
Hordeum vulgare [32] = assay: Stimulation of germination of Hordeum vulgare (barley) at 0.1 mM after 5 days relative to untreated control; format: functional
Lepidium sativum [33] = assay: Inhibition of root length of Lepidium sativum at 10 uM after 5 days relative to untreated control; format: functional, organism-based
Lepidium sativum [34] = assay: Stimulation of root length of Lepidium sativum at 0.1 mM after 5 days relative to untreated control; format: functional
Allium cepa [35] = assay: Inhibition of shoot length of Allium cepa (onion) at 0.1 mM after 5 days relative to untreated control; format: functional; details: 120 h
Solanum lycopersicum [36] = assay: Inhibition of shoot length of Solanum lycopersicum (tomato) at 0.1 mM after 5 days relative to untreated control; format: functional; details: 120 h
Allium cepa [37] = assay: Inhibition of root length of Allium cepa (onion) at 0.1 mM after 5 days relative to untreated control; format: functional; details: 120 h
Allium cepa [38] = assay: Inhibition of germination of Allium cepa (onion) at 0.1 mM after 5 days relative to untreated control; format: functional; details: 120 h
Allium cepa [39] = assay: Stimulation of shoot length of Allium cepa (onion) at 0.1 mM after 5 days relative to untreated control; format: functional
Triticum aestivum [40] = assay: Inhibition of root length of Triticum aestivum (wheat) at 0.1 mM after 5 days relative to untreated control; format: functional; details: 120 h
Lactuca sativa [41] = assay: Stimulation of root length of Lactuca sativa cv. Nigra (lettuce) at 0.1 mM after 5 days relative to untreated control; format: functional
Solanum lycopersicum [42] = assay: Stimulation of shoot length of Solanum lycopersicum (tomato) at 0.1 mM after 5 days relative to untreated control; format: functional
Triticum aestivum [43] = assay: Stimulation of shoot length of Triticum aestivum (wheat) at 0.1 mM after 5 days relative to untreated control; format: functional
Hordeum vulgare [44] = assay: Stimulation of root length of Hordeum vulgare (barley) at 0.1 mM after 5 days relative to untreated control; format: functional
Allium cepa [45] = assay: Stimulation of germination of Allium cepa (onion) at 0.1 mM after 5 days relative to untreated control; format: functional
Solanum lycopersicum [46] = assay: Inhibition of root length of Solanum lycopersicum (tomato) at 10 uM after 5 days relative to untreated control; format: functional, organism-based
Solanum lycopersicum [47] = assay: Inhibition of germination of Solanum lycopersicum (tomato) at 10 uM after 5 days relative to untreated control; format: functional, organism-based
Lepidium sativum [48] = assay: Inhibition of shoot length of Lepidium sativum at 10 uM after 5 days relative to untreated control; format: functional, organism-based

C[C@@]12CCC[C@]3(C)C4=CC(=O)OCC4=C[C@@H](OC1=O)[C@@H]23
inhibition at 100 µM (Lepidium sativum [1]): > 40% | inhibition at 100 µM (Lactuca sativa [2]): > 40% | inhibition at 100 µM (Triticum aestivum [3]): < 20% | Activity (Lactuca sativa [4]): >40% | Activity (Allium cepa [5]): >40% | Activity (Triticum aestivum [6]): inactive | inhibition at 100 µM (Lactuca sativa [7]): 20% | inhibition (Lactuca sativa [8]): inactive | inhibition (Triticum aestivum [9]): inactive | inhibition at 100 µM (Hordeum vulgare [10]): 20% | inhibition at 100 µM (Lepidium sativum [11]): > 40% | Activity (Solanum lycopersicum [12]): >40% | inhibition at 100 µM (Hordeum vulgare [13]): > 40% | Activity (Solanum lycopersicum [14]): >40% | Activity (Lactuca sativa [15]): inactive | Activity (Lepidium sativum [16]): >40% | inhibition at 100 µM (Lepidium sativum [17]): > 40% | Activity (Lactuca sativa [18]): 20% | inhibition (Solanum lycopersicum [19]): Active | inhibition at 100 µM (Solanum lycopersicum [20]): > 40% | Activity (Lepidium sativum [21]): >40% | Activity (Hordeum vulgare [22]): >40% | inhibition (Lepidium sativum [23]): Active | inhibition at 100 µM (Lactuca sativa [24]): > 40% | inhibition at 100 µM (Lactuca sativa [25]): > 40% | Activity (Triticum aestivum [26]): 20% | Activity (Lactuca sativa [27]): >40% | Activity (Lactuca sativa [28]): >40% | inhibition at 100 µM (Solanum lycopersicum [29]): > 40% | inhibition at 100 µM (Lactuca sativa [30]): > 40% | inhibition at 100 µM (Hordeum vulgare [31]): > 40% | Activity (Hordeum vulgare [32]): 20% | inhibition (Lepidium sativum [33]): Active | Activity (Lepidium sativum [34]): >40% | inhibition at 100 µM (Allium cepa [35]): > 40% | inhibition at 100 µM (Solanum lycopersicum [36]): > 40% | inhibition at 100 µM (Allium cepa [37]): > 40% | inhibition at 100 µM (Allium cepa [38]): 20% | Activity (Allium cepa [39]): >40% | inhibition at 100 µM (Triticum aestivum [40]): 20% | Activity (Lactuca sativa [41]): >40% | Activity (Solanum lycopersicum [42]): >40% | Activity (Triticum aestivum [43]): <20% | Activity (Hordeum vulgare [44]): >40% | Activity (Allium cepa [45]): 20% | inhibition (Solanum lycopersicum [46]): Active | inhibition (Solanum lycopersicum [47]): Active | inhibition (Lepidium sativum [48]): Active

CO[C@H]1OC(=O)C=C2C1=C[C@H]1OC(=O)[C@@]3(C)CCC[C@@]2(C)[C@@H]13
inhibition at 100 µM (Lepidium sativum [1]): > 40% | inhibition at 100 µM (Lactuca sativa [2]): > 40% | inhibition at 100 µM (Triticum aestivum [3]): > 40% | Activity (Lactuca sativa [4]): >40% | Activity (Allium cepa [5]): >40% | Activity (Triticum aestivum [6]): >40% | inhibition at 100 µM (Lactuca sativa [7]): > 40% | inhibition at 100 µM (Lactuca sativa [8]; 120 h): > 40% | inhibition at 100 µM (Triticum aestivum [9]; 120 h): > 40% | inhibition at 100 µM (Hordeum vulgare [10]): > 40% | inhibition at 100 µM (Lepidium sativum [11]): 20% | Activity (Solanum lycopersicum [12]): >40% | inhibition at 100 µM (Hordeum vulgare [13]): > 40% | Activity (Solanum lycopersicum [14]): >40% | Activity (Lactuca sativa [15]): >40% | Activity (Lepidium sativum [16]): 20% | inhibition at 100 µM (Lepidium sativum [17]): > 40% | Activity (Lactuca sativa [18]): >40% | inhibition (Solanum lycopersicum [19]): Active | inhibition at 100 µM (Solanum lycopersicum [20]): > 40% | Activity (Lepidium sativum [21]): >40% | Activity (Hordeum vulgare [22]): >40% | inhibition (Lepidium sativum [23]): Active | inhibition at 100 µM (Lactuca sativa [24]): > 40% | inhibition at 100 µM (Lactuca sativa [25]): > 40% | Activity (Triticum aestivum [26]): >40% | Activity (Lactuca sativa [27]): >40% | Activity (Lactuca sativa [28]): >40% | inhibition at 100 µM (Solanum lycopersicum [29]): > 40% | inhibition at 100 µM (Lactuca sativa [30]): > 40% | inhibition at 100 µM (Hordeum vulgare [31]): > 40% | Activity (Hordeum vulgare [32]): >40% | inhibition (Lepidium sativum [33]): Active | Activity (Lepidium sativum [34]): >40% | inhibition at 100 µM (Allium cepa [35]): > 40% | inhibition at 100 µM (Solanum lycopersicum [36]): > 40% | inhibition at 100 µM (Allium cepa [37]): > 40% | inhibition at 100 µM (Allium cepa [38]): > 40% | Activity (Allium cepa [39]): >40% | inhibition at 100 µM (Triticum aestivum [40]): > 40% | Activity (Lactuca sativa [41]): >40% | Activity (Solanum lycopersicum [42]): >40% | Activity (Triticum aestivum [43]): >40% | Activity (Hordeum vulgare [44]): >40% | Activity (Allium cepa [45]): >40% | inhibition (Solanum lycopersicum [46]): Active | inhibition (Solanum lycopersicum [47]): Active | inhibition (Lepidium sativum [48]): Active
